{
  "source": "patent US20140141459A1",
  "about": "“PENTRAXIN 3 ASSOCIATION WITH ASTHMA” (THE REGENTS OF THE UNIVERSITY OF MICHIGAN, priority 2011, published 2014)",
  "key": {"[1]": {"test_system": "A. fumigatus-induced asthma model", "assay": "Bronchial hyper-responsiveness (Buxco plethysmograph, methacholine) in A. fumigatus-induced asthma model", "type": "in vivo, mice", "settings": "vs PBS", "description": "(§1) C57BL/6 mice were sensitized via intraperitoneal (i.p.) and subcutaneous (s.c.) route with a commercially available preparation of soluble A. fumigatus antigens dissolved in 0.2 ml of IFA. After three intranasal instillations of Aspergillus antigen, each spaced one-week apart, each mouse received 1×10^7 swollen conidia suspended in 30 μl of PBS tween 80 (0.1%; vol/vol) via intratracheal (i.t.) administration. All mice were euthanized with an overdose of Nembutal and lung homogenates were collected immediately following euthanization. Mouse PTX3 ELISA was completed on lung homogenate supernatant.\n(§2) A. fumigatus-Induced Asthma Model was Established as Described in Example 1.\n(§3) Mice were treated every other day from day 0 to 15 or from day 15 to 30 with PBS or human PTX3 (R&D System, Minneapolis, Minn., USA; 10 μg/injection). At days 15 and 30 after conidia challenge, bronchial hyper-responsiveness was assessed in a Buxco™ plethysmograph (Buxco, Troy, N.Y.) after intravenous methacholine injection (420 μg/Kg). Other parameters were determined after the assessment of airway hyper-responsiveness."}, "[2]": {"test_system": "A. fumigatus-induced asthma model", "assay": "Cytokine levels in whole lung homogenate in A. fumigatus-induced asthma model", "type": "in vivo, mice", "settings": "day 30 after conidia challenge", "description": "as §1, §2, §3\nTo investigate whether the treatment with exogenous PTX3 modified the cytokine profile in asthma, the levels of different cytokines in whole lungs homogenate from PBS and PTX3-treated mice at day 30 after conidia challenge were measured."}},
  "data": [
    {"substance": "PTX3: human PTX3 (pentraxin 3) polypeptide from R&D System, administered to mice at 10 μg/injection", "values": [
      {"measurement": "airway resistance at day 15 after conidia", "setting": "[1]; treated every other day from day 0 to 15, 10 μg/injection", "value": "significantly increased"},
      {"measurement": "airway resistance at day 30 after conidia", "setting": "[1]; treated every other day from day 15 to 30, 10 μg/injection", "value": "significantly decreased"},
      {"measurement": "increase in IL-4", "setting": "[2]; vs PBS treatment", "value": 1.8, "unit": "fold"},
      {"measurement": "increase in IL-10", "setting": "[2]; vs PBS treatment", "value": 1.8, "unit": "fold"},
      {"measurement": "increase in IL-17", "setting": "[2]; vs PBS treatment", "value": 3.7, "unit": "fold"},
      {"measurement": "reduction in IFN-γ", "setting": "[2]; vs PBS treatment", "value": 1.8, "unit": "fold"},
      {"measurement": "IL-18 levels", "setting": "[2]; vs control group", "value": "significantly increased"},
      {"measurement": "increase in CCL22 (MDC) levels", "setting": "[2]; vs control group", "value": 1.7, "unit": "fold"},
      {"measurement": "increase in IL-1α levels", "setting": "[2]; vs control group", "value": 1.7, "unit": "fold"},
      {"measurement": "increase in IL-1β levels", "setting": "[2]; vs control group", "value": 1.7, "unit": "fold"}
    ]}
  ]
}
